Values of other authors, collected in US20070231385A1, “Controlled Release Pharmaceutical Composition and a Process for Preparing the Same” (Lupin Limited, priority 2003, published 2007).

Conditions: background statement

serum half-life: more than 25 hours
SMILES: Cc1ccnc2c1NC(=O)c1cccnc1N2C1CC1 [Nevaripine]
